# According to publication doi:10.1101/2021.06.27.450110v1 (bioRxiv, 2021):
# Where a SMILES comes first, the peptide text is derived from it. Bridges are numbered along the chain shown (N, C = ends).
# What was measured:
# [1] = test system: Burkholderia pseudomallei strains MSHR1364, MSHR2154 and MSHR10517; settings: 24 h
# [2] = test system: red blood cells (RBCs); assay: Red blood cell hemolysis assay; format: cell-based, human; settings: for fold less hemolytic than native tachyplesin I and polyphemusin I: from RBC CC50; for lysis of RBCs: incubation with 128 µM peptide, 37 °C, 1 h
# [3] = test system: BMMs; assay: Flow cytometry to measure peptide internalization; format: cell-based, mouse; settings: Alexa Fluor 488-labelled peptides, 1 h
# [4] = test system: BMMs infected with EC958; assay: Microscopy to determine location of peptides inside infected BMMs; format: cell-based, mouse; settings: 8 µM A488-labelled peptide, 1 h, fixed cells, confocal microscopy
# [5] = test system: EC958 WT; assay: Co-treatment of planktonic bacteria with peptides and zinc; format: cell-based, Escherichia coli; settings: 0.1 mM zinc
# [6] = test system: EC958ΔzntA; assay: as above; format: cell-based, Escherichia coli; settings: 0.1 mM zinc
Compound,"Antimicrobial activity: MIC, Burkholderia pseudomallei [1] [µM]",fold less hemolytic than native tachyplesin I and polyphemusin I [2],lysis of RBCs [2] [%],concentration required to internalize 50% of cells compared to tachyplesin I [3],further results
"CC(C)[C@@H]1NC(=O)[C@H](CCCNC(=N)N)NC(=O)[C@H](Cc2ccccc2)NC(=O)[C@@H](NC(=O)[C@H](Cc2c[nH]c3ccccc23)NC(=O)[C@H](CCCNC(=N)N)NC(=O)[C@@H](N)CCCNC(=N)N)CSSC[C@@H](C(=O)N[C@@H](CCCNC(=N)N)C(N)=O)NC(=O)[C@H](CCCCN)NC(=O)[C@H](CCCNC(=N)N)NC(=O)[C@H](Cc2ccc(O)cc2)NC(=O)[C@@H]2CSSC[C@H](NC1=O)C(=O)N[C@@H](Cc1ccc(O)cc1)C(=O)N[C@@H](CCCNC(=N)N)C(=O)NCC(=O)N[C@@H](Cc1ccccc1)C(=O)N2 [Polyphemusin-I] (H-RRWCFRVCYRGFCYRKCR-NH2; disulfide 4-17, 8-13)",> 64,–,–,–,–
CC(C)C[C@H](NC(=O)[C@H](CCCNC(=N)N)NC(=O)CNC(=O)CNC(=O)[C@@H](N)CCCNC(=N)N)C(=O)N[C@H]1CSSC[C@@H](C(=O)N[C@H](C(=O)NCC(=O)N[C@@H](CCCNC(=N)N)C(N)=O)C(C)C)NC(=O)[C@H](C(C)C)NC(=O)[C@@H]2CSSC[C@H](NC(=O)[C@H](Cc3ccc(O)cc3)NC1=O)C(=O)N[C@@H](CCCNC(=N)N)C(=O)N[C@@H](CCCNC(=N)N)C(=O)N[C@@H](CCCNC(=N)N)C(=O)N[C@@H](Cc1ccccc1)C(=O)N2 [Protegrin-I],> 64,–,–,–,–
"CC[C@H](C)[C@@H]1NC(=O)CNC(=O)[C@H](CCCNC(=N)N)NC(=O)[C@H](Cc2ccc(O)cc2)NC(=O)[C@@H]2CSSC[C@H](NC1=O)C(=O)N[C@@H](Cc1ccc(O)cc1)C(=O)N[C@@H](CCCNC(=N)N)C(=O)N[C@@H](CCCNC(=N)N)C(=O)N[C@H](C(=O)N[C@@H](CCCNC(=N)N)C(N)=O)CSSC[C@H](NC(=O)[C@H](Cc1c[nH]c3ccccc13)NC(=O)[C@@H](N)CCCCN)C(=O)N[C@@H](Cc1ccccc1)C(=O)N[C@@H](CCCNC(=N)N)C(=O)N[C@@H](C(C)C)C(=O)N2 [Tachyplesin I] (H-KWCFRVCYRGICYRRCR-NH2; disulfide 3-16, 7-12)",> 64,–,–,–,–
"CC(C)[C@@H]1NC(=O)[C@H](CCCNC(=N)N)NC(=O)[C@H](Cc2ccccc2)NC(=O)[C@@H](NC(=O)[C@H](Cc2c[nH]c3ccccc23)NC(=O)[C@@H](N)CCCCN)CSSC[C@@H](C(=O)N[C@@H](CCCNC(=N)N)C(N)=O)NC(=O)[C@H](CCCNC(=N)N)NC(=O)[C@H](CCCNC(=N)N)NC(=O)[C@H](Cc2ccc(O)cc2)NC(=O)[C@@H]2CSSC[C@H](NC1=O)C(=O)N[C@@H](Cc1ccc(O)cc1)C(=O)N[C@@H](CCCNC(=N)N)C(=O)NCC(=O)N[C@@H](C)C(=O)N2 [[I11A]tachyplesin I] (H-KWCFRVCYRGACYRRCR-NH2; disulfide 3-16, 7-12)",–,at least 3 fold,< 50,> ten-fold lower concentrations,intracellular localization in BMMs infected with EC958 [4]: locates mainly within vesicles
"CC(C)[C@@H]1NC(=O)[C@H](CCCNC(=N)N)NC(=O)[C@H](Cc2ccccc2)NC(=O)[C@@H](NC(=O)[C@H](Cc2c[nH]c3ccccc23)NC(=O)[C@@H](N)CCCCN)CSSC[C@@H](C(=O)N[C@@H](CCCNC(=N)N)C(N)=O)NC(=O)[C@H](CCCNC(=N)N)NC(=O)[C@H](CCCNC(=N)N)NC(=O)[C@H](Cc2ccc(O)cc2)NC(=O)[C@@H]2CSSC[C@H](NC1=O)C(=O)N[C@@H](Cc1ccc(O)cc1)C(=O)N[C@@H](CCCNC(=N)N)C(=O)NCC(=O)N[C@@H](CO)C(=O)N2 [[I11S]tachyplesin I] (H-KWCFRVCYRGSCYRRCR-NH2; disulfide 3-16, 7-12)",–,at least 3 fold,< 50,> ten-fold lower concentrations,–
"O=S(=O)([O-])[O-].[Zn+2] [zinc, zinc sulfate]",–,–,–,–,growth of EC958 WT with zinc alone [5]: does not significantly inhibit; growth of EC958ΔzntA with zinc alone [6]: does not significantly inhibit
